Values of other authors in patent publication US20100048679A1, “POLYNUCLEOTIDE THERAPY” (Bayhill Therapeutics, Inc., priority 2006, published 2010).
Read-outs that look alike come from different tables or passages of the source.

System: patients

Compound	Significant side effects (MS patients, literature)	Significant side effects (in vivo)
O=C1c2c(O)ccc(O)c2C(=O)c2c(NCCNCCO)ccc(NCCNCCO)c21 [mitoxantrone]	myelosuppression with increased risk for infections	–
glatiramer acetate	–	allergic reactions
interferon β	flu-like symptoms	–
natalizumab [Tysabri]	decreases lymphocyte trafficking	–
